Experimental data reported in patent publication US6017512A, “Radiolabeled peptides” (Diatide, Inc., priority 1997, dated 2000).
Numbered stars: 1 amine (or outer) side, 2 acyl side, 3 side chain; on linkers, the order of the positions; unused ones are H or OH. Bridge positions count the residues as written; N and C are the ends. Square brackets hold non-standard residues; d marks the D form. Peptide text beside a SMILES is read from it. * marks the point of attachment. hhCys(CH2CO) = O=C([C@H](CCCSCC(=O)[*:3])N[*:1])[*:2]; X9 = CC(C)(S)CNCCN(CCCCC(=O)*)CC(C)(C)S; X3 = CC(C)(S)CNCCN(CCCCCN*)CC(C)(C)S; NMeF = CN[C@@H](Cc1ccccc1)C(=O)O; hCys = N[C@@H](CCS)C(=O)O

Each compound was assayed against T1, somatostatin receptors (Rattus norvegicus, UniProt P30680) (assay: Inhibition of binding of [125I-Tyr11]somatostatin-14 to AR42J rat pancreatic tumor cell membranes). Conditions: uncomplexed peptides, displacement of [125I-Tyr11]somatostatin-14 (0.5 nM).
T1 construct: endogenous in cells; host or cells: AR42J rat pancreatic tumor cell line, membrane preparation
T1 sequence (P30680 whole entry): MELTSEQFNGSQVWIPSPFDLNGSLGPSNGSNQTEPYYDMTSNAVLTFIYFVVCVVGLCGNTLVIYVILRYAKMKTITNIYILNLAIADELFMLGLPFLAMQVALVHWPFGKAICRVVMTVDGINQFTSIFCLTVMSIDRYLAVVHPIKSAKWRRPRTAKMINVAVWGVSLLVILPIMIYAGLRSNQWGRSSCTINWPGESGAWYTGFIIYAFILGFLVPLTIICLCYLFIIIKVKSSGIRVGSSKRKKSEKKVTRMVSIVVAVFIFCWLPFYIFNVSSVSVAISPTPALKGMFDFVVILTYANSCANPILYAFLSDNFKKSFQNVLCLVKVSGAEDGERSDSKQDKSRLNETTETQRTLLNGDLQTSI
Description: Inhibition of Binding of [^125 I-Tyr^11 ]somatostatin-14 to AR42J Rat Pancreatic Tumor Cell Membranes
The rat pancreatic tumor cell line AR42J which expresses the somatostatin receptor was cultured in Dulbecco's minimal essential media (DMEM) supplemented with 10% fetal bovine serum (FBS) and 8 mM glutamine in a humidified 5% CO2 atmosphere at 37° C. in T-flasks. Harvested cells were homogenized in cold 50 mM Tris-HCl buffer (pH 7.4) and the homogenate then centrifuged at 39,000 g for 10 min at 4° C. Pellets were washed once with buffer and then resuspended in an ice-cold solution of 10 mM Tris-HCl (pH 7.4). Equal aliquots of this cell membrane preparation were incubated with [^125 I-Tyr^11 ]somatostatin-14 (at a final concentration of 0.5 nM and 750,000 cpm/mL, at a specific activity of 2000 Ci/mmol, Amersham, Arlington Heights, Ill.) and peptide or peptide-rheniumcomplex at a final concentration of from 10^-11 M to 10^-6 M in a solution of 50 mM HEPES (pH 7.4) containing 1% bovine serum albumin (BSA), 5 mM MgCl2, Trasylol (200,000 International Units), bacitracin (0.02 mg/mL) and phenylmethylsulfonylfluoride (0.02 mg/mL) for 25 min at 30° C. Using a filtration manifold, this mixture was filtered through a polyethyleneimine-washed GC/F filter (Whatman, Maidstone, England), and the residue remaining on the filter washed thrice with 5 mL cold HEPES buffer. The filter and a sample of the filter washings were then counted in a gamma counter. To assess non-specific binding, the assay was performed in the presence of unlabeled somatostatin-14 at 200 nM. Data analysis including Hill plots of the data provided inhibition constants (see Bylund & Yamamura, "Methods of receptor binding", in Methods in Neurotransmitter Receptor Analysis, Yamamura et al., eds., Raven Press: New York, 1990).

SMILES	Ki [nM]
C[C@@H](O)[C@@H]1NC(=O)[C@H](CCCCN)NC(=O)[C@@H](Cc2c[nH]c3ccccc23)NC(=O)[C@H](Cc2ccccc2)NC(=O)[C@H](Cc2ccccc2)NC(=O)CSCC[C@@H](C(=O)O)NC(=O)[C@H](Cc2ccccc2)NC1=O [CH2 CO.FFWD KTF.Hcy] ({CH2CO}-FF[dW]KTF[hCys]-OH; thioether N-7)	9.8
C[C@@H](O)[C@@H]1NC(=O)[C@H](CCCCN)NC(=O)[C@@H](Cc2c[nH]c3ccccc23)NC(=O)[C@H](Cc2ccccc2)NC(=O)[C@H](Cc2ccccc2)NC(=O)CSC[C@@H](C(=O)NCCCCCN(CCNCC(C)(C)S)CC(C)(C)S)NC(=O)[C@H](Cc2ccccc2)NC1=O [CH2 CO.FFWD KTFC.[BAM]] ({CH2CO}-FF[dW]KTFC-X3; thioether N-7)	1.9
CC(C)[C@@H]1NC(=O)[C@H](CCCCN)NC(=O)[C@@H](Cc2c[nH]c3ccccc23)NC(=O)[C@H](Cc2ccc(O)cc2)NC(=O)[C@H](CS)NC(=O)[C@H](CS)NC1=O [cyclo.CYWD KVC, cyclo Cys--Tyr--D--Trp--Lys--Val--Cys] (cyclo(CY[dW]KVC))	0.43
C[C@@H](O)[C@@H]1NC(=O)[C@H](CCCCN)NC(=O)[C@@H](Cc2c[nH]c3ccccc23)NC(=O)[C@H](Cc2ccccc2)NC(=O)[C@H](Cc2ccccc2)NC(=O)CSC[C@@H](C(N)=O)NC(=O)[C@H](Cc2ccccc2)NC1=O [CH2 CO.FFWD KTFC.amide] ({CH2CO}-FF[dW]KTFC-NH2; thioether N-7)	0.45
C[C@@H](O)[C@@H]1NC(=O)[C@H](CCCCN)NC(=O)[C@@H](Cc2c[nH]c3ccccc23)NC(=O)[C@H](Cc2ccccc2)NC(=O)[C@H](Cc2ccccc2)NC(=O)CSC[C@@H](C(=O)O)NC(=O)[C@H](Cc2ccccc2)NC1=O [CH2 CO.FFWD KTFC] ({CH2CO}-FF[dW]KTFC-OH; thioether N-7)	4
C[C@@H](O)[C@@H]1NC(=O)[C@H](CCCCN)NC(=O)[C@@H](Cc2c[nH]c3ccccc23)NC(=O)[C@H](Cc2ccccc2)NC(=O)[C@H](Cc2ccccc2)NC(=O)CSCCC[C@@H](C(N)=O)NC(=O)[C@H](Cc2ccccc2)NC1=O [CH2 CO.FFWD KTF.Hhc.amide] (FF[dW]KTF[hhCys(CH2CO)]-NH2; lactam N-7)	0.41

Further lines, results first:

Ki [nM]	SMILES
0.46	CC(C)[C@@H]1NC(=O)[C@H](CCCCN)NC(=O)[C@@H](Cc2c[nH]c3ccccc23)NC(=O)[C@H](Cc2ccc(O)cc2)NC(=O)[C@H](Cc2ccccc2)N(C)C(=O)[C@H](CCCCNC(=O)CCCCN(CCNCC(C)(C)S)CC(C)(C)S)NC1=O [cyclo.(N--CH3)F.YWD KV.K.[BAT], cyclo.(N--CH3)Phe--Tyr--D--Trp--Lys--Val--Lys(BAT)] (cyclo([NMeF]Y[dW]KVK(X9)))
2.6	CC(C)[C@@H]1NC(=O)[C@H](CCCCN)NC(=O)[C@@H](Cc2c[nH]c3ccccc23)NC(=O)[C@H](Cc2ccc(O)cc2)NC(=O)[C@H](Cc2ccccc2)N(C)C(=O)[C@H](CCC(=O)NCCCCCN(CCNCC(C)(C)S)CC(C)(C)S)NC1=O [cyclo.(N--CH3)F.YWD KV.E.[BAM], cyclo.(N--CH3)Phe--Tyr--D--Trp--Lys--Val--Glu(BAM)] (cyclo([NMeF]Y[dW]KVE(X3)))
0.16	C[C@@H](O)[C@@H]1NC(=O)[C@H](CCCCN)NC(=O)[C@@H](Cc2c[nH]c3ccccc23)NC(=O)[C@H](Cc2ccc(O)cc2)NC(=O)[C@H](Cc2ccccc2)NC(=O)CSC[C@@H](C(N)=O)NC(=O)[C@H](Cc2ccccc2)NC1=O [CH2 CO.FYWD KTFC.amide] ({CH2CO}-FY[dW]KTFC-NH2; thioether N-7)
2.7	C[C@@H](O)[C@@H]1NC(=O)[C@H](Cc2ccccc2)NC(=O)[C@H]([C@@H](C)O)NC(=O)[C@H](CCCCN)NC(=O)[C@@H](Cc2c[nH]c3ccccc23)NC(=O)[C@H](Cc2ccccc2)NC(=O)[C@H](Cc2ccccc2)NC(=O)[C@H](CC(N)=O)NC(=O)CSC[C@@H](C(=O)O)NC1=O [CH2 CO.NFFWD KTFTC] ({CH2CO}-NFF[dW]KTFTC-OH; thioether N-9)
